*1 amine or outer side, *2 acyl side, *3 side chain or, on linkers, in order; H or OH if unused. Where a SMILES comes first, the peptide text is derived from it. CO = O=C([*:1])[*:2]
Tests used:
alkaline protease K-16 [1] = target: T1, alkaline protease K-16 (Shouchella clausii, UniProt Q99405); experiment: Effects of metal ions on protease activity; format: biochemical, Bacillus sp. KSM-K16; conditions: metal salt 1 mM; for Residual Activity: pH 9.5, 30°C for 20 minutes, relative to no metal salt; for effect on activity of the alkaline protease K-16 (in words): 30°C for 20 minutes
T1 sequence (Q99405 112-380): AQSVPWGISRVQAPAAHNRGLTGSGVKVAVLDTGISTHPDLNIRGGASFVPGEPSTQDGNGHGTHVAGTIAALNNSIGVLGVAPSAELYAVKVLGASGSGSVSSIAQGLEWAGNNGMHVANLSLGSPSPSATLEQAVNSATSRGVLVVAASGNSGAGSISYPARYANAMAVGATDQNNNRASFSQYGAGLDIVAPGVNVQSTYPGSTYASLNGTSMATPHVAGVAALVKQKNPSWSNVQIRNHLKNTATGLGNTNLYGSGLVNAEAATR
Experimental: A 1 ml portion of 50 mM boric acid-NaOH buffer (pH 10) containing 1% casein was mixed with 0.1 ml of enzyme solution, and the mixture was incubated at 40°C for 10 minutes. The reaction was stopped by adding 2 ml of a solution containing 0.123 M trichloroacetic acid, 0.246 M sodium acetate and 0.369 M acetic acid. After allowing to stand at 30°C for 20 minutes, the resulting mixture was filtered through a filter paper (manufactured by Whatman; No. 2), and the filtrate was checked for its contents of proteolytic products in accordance with the modified Folin-Lowry method. One unit of activity (1 P.U.) was defined as the amount of enzyme which produces 1 mmole of tyrosine per minute.
Effects of various metal ions on the activity of the alkaline protease K-16 were examined. A 20 mM boric acid-NaOH buffer (pH 9.5) solution containing 1 mM of a metal salt was mixed with 3.9 x 10⁻³ P.U. of the alkaline protease K-16, and the mixture was maintained at 30°C for 20 minutes. Thereafter, the thus treated mixture was diluted with 50 mM boric acid-NaOH buffer (pH 10.0) by a factor of 5 to measure residual activity which was then calculated as relative value based on the activity measured in the same manner in the absence of metal salts. […] Also, as is evident from the results described in the foregoing items (5) and (6), thermal stability of this enzyme is improved in the presence of Ca²⁺ TABLE 3

alkaline protease K-16 [2] = target: T1, alkaline protease K-16; experiment: biochemical; format: biochemical, Bacillus sp. KSM-K16

SMILES | Residual Activity (alkaline protease K-16 [1]) [%] | further results
O=[N+]([O-])[O-].[Ag+] [AgNO₃] | 86 | 
CC(C)[C@H](NC(=O)[C@H](CCCNC(=N)N)NC(=O)N[C@@H](Cc1ccccc1)C(=O)O)C(=O)N[C@H](C=O)CCCNC(=N)N [Antipain] ({Phe-CO}-Arg-Val-Arg-aldehyde) |  | Residual Activity (alkaline protease K-16 [2]; pH 7): 108%
[Ca+2].[Cl-].[Cl-] [CaCl₂] | 103 | 
CC(C)C[C@H](NC(=O)[C@@H](NC(=O)N[C@@H](Cc1ccccc1)C(=O)O)[C@@H]1CCN=C(N)N1)C(=O)N[C@H](C=O)Cc1ccccc1 [Chymostatin] |  | Residual Activity (alkaline protease K-16 [2]; pH 7): 34%; effect on activity of the alkaline protease K-16 (in words) (alkaline protease K-16 [2]; pH 7): inhibited
[Cl-].[Cl-].[Co+2] [CoCl₂] | 103 | 
O=S(=O)([O-])[O-].[Cu+2] [CuSO₄] | 73 | effect on activity of the alkaline protease K-16 (in words) (alkaline protease K-16 [1]): inhibited
O=C(O)CN(CCN(CC(=O)O)CC(=O)O)CC(=O)O [EDTA] |  | remaining activity at 5000 µM (alkaline protease K-16 [2]; pH 7, read-out: Residual Activity): 107%
[Cl][Hg][Cl] [HgCl₂] | 46 | effect on activity of the alkaline protease K-16 (in words) (alkaline protease K-16 [1]): inhibited
[Cl][Ni][Cl] [NiCl₂] | 103 | 
[Cl][Pb][Cl] [PbCl₂] | 100 | 
[Cl-].[Cl-].[Zn+2] [ZnCl₂] | 106 | 
